Converted amounts (≈) assume the structure as drawn. Square brackets hold non-standard residues; d marks the D form. Primed or numbered codes have the meaning given here. Side chains are listed from the residue outwards. Ends that are not written are not given here. Peptide text beside a SMILES is read from it. * marks the point of attachment. Orn(α-tetramethylguanidino) = CN(C)C(=N[C@@H](CCCN)C(=O)*)N(C)C; Guan″ = guanidino group at the N-terminus, N=C(N)*; sPEG750 = PEG of 750 linked via acid group; Orn = NCCC[C@H](N)C(=O)O
Legend:
[1] = test system: Escherichia coli strain BL21AI; experiment: Minimum inhibitory concentration in TSB in the presence of 25% mouse serum; type: cell-based; conditions: E. coli BL21AI, TSB with 25% mouse serum, 20 hours at 37° C.
Protocol: To that end, the peptides were dissolved in water and diluted in a two-fold dilution series with 1% aqueous soybean medium (TSB) in sterile 96-well plates (Greiner Bio-One GmbH) from 128 μg/ml in twelve dilution steps to 62.5 ng/ml. Overnight cultures of Escherichia coli strain BL21AI were adjusted with 1% TSB to about […] colony forming units per ml. In each case 50 μl of peptide solution per well were then mixed with in each case 50 μl of the bacteria solution, in order to achieve a starting concentration of 4×10^5 bacteria per well. After incubation for 20 hours at 37° C., the absorption at 595 nm was determined (microplate reader, TECAN Trading AG).
In addition, the antibacterial activity was also determined in the presence of 25% mouse serum. To that end, the MIC values were determined as described above, but 25 μl of mouse serum were also added to each well before the incubation (25% final concentration).

[2] = test system: Escherichia coli strain BL21AI; experiment: Minimum inhibitory concentration in 1% TSB; type: cell-based; conditions: E. coli BL21AI, 1% TSB, 20 hours at 37° C.
Outline: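 Peptides in twofold dilution series in 1% TSB, 128 μg/ml down to 62.5 ng/ml, mixed 1:1 with bacteria for 4×10^5 bacteria per well. Incubated 20 h at 37° C; growth read as absorbance at 595 nm.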

[3] = Serum stability / release of peptide in 25% aqueous mouse serum (RP-HPLC, MALDI-MS); conditions: 25% (v/v) aqueous mouse serum
Protocol: (§1) 30 μl of a 1 mg/ml peptide solution were diluted with 120 μl of water and, after addition of 50 of serum, incubated at 37° C. for 0 hours, 0.5 hour, 1 hour, 2 hours or 4 hours. Alternatively, the peptide derivatives having a starting concentration of 3 mg/ml were diluted with serum to a final concentration of 15 μg/ml. According to the stability of the peptides, the samples were analysed at the times mentioned above or after 0 hours, 4 hours and 6 hours. The serum proteins were precipitated by addition of 50 μl of 15% TCA, and the supernatant was neutralised with 25 μl of 1 mol/l NaOH. The samples were made up to 250 μl with 5% B, 230 μl of the solution were transferred into a HPLC vial, and 220 μl were injected.
(§2) RP-HPLC analysis was carried out with a linear acetonitrile gradient (Biosolve BV, Valkenswaard, Netherlands) in the presence of 0.1% trifluoroacetic acid (TFA, UV grade, Fluka Chemie GmbH, Buchs, Switzerland) as ion-pair reagent. The fractions were co-crystallised with α-cyanohydroxycinnamic acid (Bruker Daltonik GmbH; Bremen, Germany) as matrix (4 mg/ml in 60% acetonitrile in 0.1% aqueous TFA) and analysed with a tandem mass spectrometer (MALDI-TOF/TOF-MS, 4700 Proteomics Analyzer; Applied Biosystems GmbH, Weiterstadt, Germany) in positive-ion reflector mode. The amount of intact peptides and their degradation products or metabolites could thus be identified and quantified at the individual times. 25% aqueous mouse serum, which was analysed in parallel for the same time intervals, was used as control.

[4] = mouse
Protocol: as §1, §2

[5] = mammalian serum (25%); cited from earlier work

Row | Compound | MIC in TSB/mouse serum [1] [µmol/L] | MIC in TSB [2] [µmol/L] | half-life at 150 µg/ml [3] [min] | Half-life (t1/2) in 25% serum [4] [min] | Time to degradation in mammalian serum [5]
1 | CC[C@H](C)[C@H](NC(=O)[C@H](Cc1ccc(O)cc1)NC(=O)[C@@H](NC(=O)[C@@H]1CCCN1C(=O)[C@H](CCCNC(=N)N)NC(=O)[C@H](CC(N)=O)NC(=O)[C@H](CC(N)=O)NC(=O)[C@H](CCCN)N=C(N(C)C)N(C)C)C(C)C)C(=O)N1CCC[C@H]1C(=O)N[C@@H](CCCNC(=N)N)C(=O)N1CCC[C@H]1C(=O)N[C@@H](CCCNC(=N)N)C(=O)N1CCC[C@H]1C(=O)N1CCC[C@H]1C(=O)N[C@@H](Cc1c[nH]cn1)C(=O)N1CCC[C@H]1C(=O)N[C@@H](CCCNC(=N)N)C(=O)N[C@@H](CC(C)C)C(=O)O [Api 137, Guan-ONNRPVYIPRPRPPHPRL-OH, reference compound] ({Orn(α-tetramethylguanidino)}-NNRPVYIPRPRPPHPRL-OH) | 0.23 | 0.46 (≈ 1.05 µg/mL) | > 360 |  | 
2 | Guan-O(sPEG^750-GARSG)NNRPVYIPRPRPPHPRL-OH ({Guan″}-[Orn]NNRPVYIPRPRPPHPRL-OH; not fully specified (residue 1)) [Api 137 (sPEG^750-GARSG)] |  | 1.1 |  | 60 | 
3 | GKPRPYSPRPTSHPRPIRV [drosocin] |  |  |  |  | degraded within an hour
4 | Guan-O(sPEG^750-GRSG)NNRPVYIPRPRPPHPRL-OH ({Guan″}-[Orn]([Gly-Ser-Arg-Gly-sPEG750])NNRPVYIPRPRPPHPRL-OH) [Api 137 (sPEG^750-GRSG)] |  |  |  | 120 | 

Reference: patent US9856298B2 (priority 2011, dated 2018)
